Patent US20240043404A1 (AbbVie Inc., priority 2009, published 2024)
Read-outs that look alike come from different tables or passages of the source.

System: RS4;11 cells
Experiment: RS4;11 cell viability assay (CellTiter Glo);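 further: acute lymphoblastic leukemia line RS4,11, EC50 derived from percentage of viable cells after treatment relative to untreated controls, cell killing taken as a measure of Bcl-2 inhibition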
Type: cell-based, human
Details: 10% human serum, 48 hours, read-out: RS4, 11 EC50 Values
[1] = Homo sapiens, RS4-11, 48 h, 50,000 cells per well

Procedure: The acute lymphoblastic leukemia (ALL) cell line RS4;11 was used as the primary human cell line to assess the cellular activity of Bcl-2 selective agents in vitro and their efficacy in vivo.
Cell cytotoxicity EC50 values were assessed using CellTiter Glo (Promega) according to the manufacturer's recommendations. The EC50 values were determined as a percentage of viable cells following treatment compared to the untreated control cells.

SMILES | EC50 [1] [nM] | EC50 (50,000 cells per well) [nM]
CC1(C)CCC(CN2CCN(c3ccc(C(=O)NS(=O)(=O)c4ccc(NCC5CCC6(CC5)COC6)c([N+](=O)[O-])c4)c(Oc4cnc5[nH]ccc5c4)c3)CC2)=C(c2ccc(Cl)cc2)C1 [Example 365, 4-(4-{[2-(4-chlorophenyl)-4,4-dimethylcyclohex-1-en-1-yl]methyl}piperazin-1-yl)-N-({3-nitro-4-[(2-oxaspiro[3.5]non-7-ylmethyl)amino]phenyl}sulfonyl)-2-(1H-pyrrolo[2,3-b]pyridin-5-yloxy)benzamide] | 3.02 | –
CN1CC(Nc2ccc(S(=O)(=O)NC(=O)c3ccc(N4CCN(CC5=C(c6ccc(Cl)cc6)CC(C)(C)CC5)CC4)cc3Oc3cnc4[nH]ccc4c3)cc2[N+](=O)[O-])CC1=O (stereo not shown) [Example 202, 4-(4-{[2-(4-chlorophenyl)-4,4-dimethylcyclohex-1-en-1-yl]methyl}piperazin-1-yl)-N-({4-[(1-methyl-5-oxopyrrolidin-3-yl)amino]-3-nitrophenyl}sulfonyl)-2-(1H-pyrrolo[2,3-b]pyridin-5-yloxy)benzamide] | 43.8 | –
CC1(C)CCC(CN2CCN(c3ccc(C(=O)NS(=O)(=O)c4cnc(OCC5CCOCC5)c(C(N)=O)c4)c(Oc4cnc5[nH]ccc5c4)c3)CC2)=C(c2ccc(Cl)cc2)C1 [Example 46, 5-({[4-(4-{[2-(4-chlorophenyl)-4,4-dimethylcyclohex-1-en-1-yl]methyl}piperazin-1-yl)-2-(1H-pyrrolo[2,3-b]pyridin-5-yloxy)benzoyl]amino}sulfonyl)-2-(tetrahydro-2H-pyran-4-ylmethoxy)nicotinamide] | > 5000 | –
COCCOCCS(=O)(=O)c1ccc(S(=O)(=O)NC(=O)c2ccc(N3CCN(CC4=C(c5ccc(Cl)cc5)CC(C)(C)CC4)CC3)cc2Oc2cnc3[nH]ccc3c2)cc1Cl [Example 58, N-[(3-chloro-4-{[2-(2-methoxyethoxy)ethyl]sulfonyl}phenyl)sulfonyl]-4-(4-{[2-(4-chlorophenyl)-4,4-dimethylcyclohex-1-en-1-yl]methyl}piperazin-1-yl)-2-(1H-pyrrolo[2,3-b]pyridin-5-yloxy)benzamide] | > 5000 | –
CC1(C)CCC(CN2CCN(c3ccc(C(=O)NS(=O)(=O)c4cnc(OCCC5CCOCC5)c(C#N)c4)c(Oc4cnc5[nH]ccc5c4)c3)CC2)=C(c2ccc(Cl)cc2)C1 [Example 278, 4-(4-{[2-(4-chlorophenyl)-4,4-dimethylcyclohex-1-en-1-yl]methyl}piperazin-1-yl)-N-({5-cyano-6-[2-(tetrahydro-2H-pyran-4-yl)ethoxy]pyridin-3-yl}sulfonyl)-2-(1H-pyrrolo[2,3-b]pyridin-5-yloxy)benzamide] | 794 | –
CC1(C)CCC(CN2CCN(c3ccc(C(=O)NS(=O)(=O)c4ccc(NC5CCC6(CC5)OCCO6)c([N+](=O)[O-])c4)c(Oc4cnc5[nH]ccc5c4)c3)CC2)=C(c2ccc(Cl)cc2)C1 [Example 178, 4-(4-{[2-(4-chlorophenyl)-4,4-dimethylcyclohex-1-en-1-yl]methyl}piperazin-1-yl)-N-{[4-(1,4-dioxaspiro[4.5]dec-8-ylamino)-3-nitrophenyl]sulfonyl}-2-(1H-pyrrolo[2,3-b]pyridin-5-yloxy)benzamide] | 202 | –
COCC1(C)CCC(c2ccc(Cl)cc2)=C(CN2CCN(c3ccc(C(=O)NS(=O)(=O)c4ccc(NCC5CCOCC5)c([N+](=O)[O-])c4)c(Oc4cnc5[nH]ccc5c4)c3)CC2)C1 (stereo not shown) [Example 360, 4-(4-{[2-(4-chlorophenyl)-5-(methoxymethyl)-5-methylcyclohex-1-en-1-yl]methyl}piperazin-1-yl)-N-({3-nitro-4-[(tetrahydro-2H-pyran-4-ylmethyl)amino]phenyl}sulfonyl)-2-(1H-pyrrolo[2,3-b]pyridin-5-yloxy)benzamide] | 9.9 | –
CC1(C)CCC(CN2CCN(c3ccc(C(=O)NS(=O)(=O)c4ccc(NC5CCN(C6CCC6)CC5)c([N+](=O)[O-])c4)c(Oc4cnc5[nH]ccc5c4)c3)CC2)=C(c2ccc(Cl)cc2)C1 [Example 140, 4-(4-{[2-(4-chlorophenyl)-4,4-dimethylcyclohex-1-en-1-yl]methyl}piperazin-1-yl)-N-({4-[(1-cyclobutylpiperidin-4-yl)amino]-3-nitrophenyl}sulfonyl)-2-(1H-pyrrolo[2,3-b]pyridin-5-yloxy)benzamide] | 12.8 | –
CC1(C)CCC(CN2CCN(c3ccc(C(=O)NS(=O)(=O)c4ccc(OCC5CCC6(CC5)COC6)c([N+](=O)[O-])c4)c(Oc4cnc5[nH]ccc5c4)c3)CC2)=C(c2ccc(Cl)cc2)C1 [Example 351, 4-(4-{[2-(4-chlorophenyl)-4,4-dimethylcyclohex-1-en-1-yl]methyl}piperazin-1-yl)-N-{[3-nitro-4-(2-oxaspiro[3.5]non-7-ylmethoxy)phenyl]sulfonyl}-2-(1H-pyrrolo[2,3-b]pyridin-5-yloxy)benzamide] | 2.06 | –
CO[C@H]1CC[C@H](COc2ncc(S(=O)(=O)NC(=O)c3ccc(N4CCN(CC5=C(c6ccc(Cl)cc6)CC(C)(C)CC5)CC4)cc3Oc3cnc4[nH]ccc4c3)cc2C(F)(F)F)CC1 [Example 300, 4-(4-{[2-(4-chlorophenyl)-4,4-dimethylcyclohex-1-en-1-yl]methyl}piperazin-1-yl)-N-({6-[(trans-4-methoxycyclohexyl)methoxy]-5-(trifluoromethyl)pyridin-3-yl}sulfonyl)-2-(1H-pyrrolo[2,3-b]pyridin-5-yloxy)benzamide] | 763 | –
CC1(C)CCC(CN2CCN(c3ccc(C(=O)NS(=O)(=O)c4ccc(OCC5CCOCC5)c(C(N)=O)c4)c(Oc4cnc5[nH]ccc5c4)c3)CC2)=C(c2ccc(Cl)cc2)C1 [Example 38, N-{[3-(aminocarbonyl)-4-(tetrahydro-2H-pyran-4-ylmethoxy)phenyl]sulfonyl}-4-(4-{[2-(4-chlorophenyl)-4,4-dimethylcyclohex-1-en-1-yl]methyl}piperazin-1-yl)-2-(1H-pyrrolo[2,3-b]pyridin-5-yloxy)benzamide] | 3510 | –
CN1CCC(F)(COc2ccc(S(=O)(=O)NC(=O)c3ccc(N4CCN(CC5=C(c6ccc(Cl)cc6)CC(C)(C)CC5)CC4)cc3Oc3cnc4[nH]ccc4c3)cc2Cl)CC1 [Example 283, N-({3-chloro-4-[(4-fluoro-1-methylpiperidin-4-yl)methoxy]phenyl}sulfonyl)-4-(4-{[2-(4-chlorophenyl)-4,4-dimethylcyclohex-1-en-1-yl]methyl}piperazin-1-yl)-2-(1H-pyrrolo[2,3-b]pyridin-5-yloxy)benzamide] | 13.1 | –
CC1(C)CCC(CN2CCN(c3ccc(C(=O)NS(=O)(=O)c4ccc(NCC56CC7CC(C5)C(O)C(C7)C6)c([N+](=O)[O-])c4)c(Oc4cnc5[nH]ccc5c4)c3)CC2)=C(c2ccc(Cl)cc2)C1 (stereo not shown) [Example 199, 4-(4-{[2-(4-chlorophenyl)-4,4-dimethylcyclohex-1-en-1-yl]methyl}piperazin-1-yl)-N-{[4-({[(E)-4-hydroxy-1-adamantyl]methyl}amino)-3-nitrophenyl]sulfonyl}-2-(1H-pyrrolo[2,3-b]pyridin-5-yloxy)benzamide] | – | 5.06
CC1(C)CCC(CN2CCN(c3ccc(C(=O)NS(=O)(=O)c4ccc(OCC5CCN(C6COC6)CC5)c(Cl)c4)c(Oc4cnc5[nH]ccc5c4)c3)CC2)=C(c2ccc(Cl)cc2)C1 [Example 309, N-[(3-chloro-4-{[1-(oxetan-3-yl)piperidin-4-yl]methoxy}phenyl)sulfonyl]-4-(4-{[2-(4-chlorophenyl)-4,4-dimethylcyclohex-1-en-1-yl]methyl}piperazin-1-yl)-2-(1H-pyrrolo[2,3-b]pyridin-5-yloxy)benzamide] | 52.4 | –
CC1(C)CCC(CN2CCN(c3ccc(C(=O)NS(=O)(=O)c4ccc(N[C@H]5CCN(C6CCOCC6)C5)c([N+](=O)[O-])c4)c(Oc4cnc5[nH]ccc5c4)c3)CC2)=C(c2ccc(Cl)cc2)C1 [Example 132, 4-(4-{[2-(4-chlorophenyl)-4,4-dimethylcyclohex-1-en-1-yl]methyl}piperazin-1-yl)-N-[(3-nitro-4-{[(3S)-1-tetrahydro-2H-pyran-4-ylpyrrolidin-3-yl]amino}phenyl)sulfonyl]-2-(1H-pyrrolo[2,3-b]pyridin-5-yloxy)benzamide] | 22.1 | –
CN1CCC(CNc2ccc(S(=O)(=O)NC(=O)c3ccc(N4CCN(CC5=C(c6ccc(Cl)cc6)CC(C)(C)CC5)CC4)cc3Oc3cnc4[nH]ccc4c3)cc2[N+](=O)[O-])CC1 [Example 65, 4-(4-{[2-(4-chlorophenyl)-4,4-dimethylcyclohex-1-en-1-yl]methyl}piperazin-1-yl)-N-[(4-{[(1-methylpiperidin-4-yl)methyl]amino}-3-nitrophenyl)sulfonyl]-2-(1H-pyrrolo[2,3-b]pyridin-5-yloxy)benzamide] | 0.25 | –
CN1CCOC(CNc2ccc(S(=O)(=O)NC(=O)c3ccc(N4CCN(CC5=C(c6ccc(Cl)cc6)CC(C)(C)CC5)CC4)cc3Oc3cnc4[nH]ccc4c3)cc2[N+](=O)[O-])C1 (stereo not shown) [Example 134, 4-(4-{[2-(4-chlorophenyl)-4,4-dimethylcyclohex-1-en-1-yl]methyl}piperazin-1-yl)-N-[(4-{[(4-methylmorpholin-2-yl)methyl]amino}-3-nitrophenyl)sulfonyl]-2-(1H-pyrrolo[2,3-b]pyridin-5-yloxy)benzamide] | 2.51 | –
CC(=O)N1CCCC(CNc2ccc(S(=O)(=O)NC(=O)c3ccc(N4CCN(CC5=C(c6ccc(Cl)cc6)CC(C)(C)CC5)CC4)cc3Oc3cnc4[nH]ccc4c3)cc2[N+](=O)[O-])C1 (stereo not shown) [Example 148, N-[(4-{[(1-acetylpiperidin-3-yl)methyl]amino}-3-nitrophenyl)sulfonyl]-4-(4-{[2-(4-chlorophenyl)-4,4-dimethylcyclohex-1-en-1-yl]methyl}piperazin-1-yl)-2-(1H-pyrrolo[2,3-b]pyridin-5-yloxy)benzamide] | 9.38 | –
CC1(C)CCC(CN2CCN(c3ccc(C(=O)NS(=O)(=O)c4cc(F)c(F)c(OCC5(F)CCOCC5)c4)c(Oc4cnc5[nH]ccc5c4)c3)CC2)=C(c2ccc(Cl)cc2)C1 [Example 313, 4-(4-{[2-(4-chlorophenyl)-4,4-dimethylcyclohex-1-en-1-yl]methyl}piperazin-1-yl)-N-({3,4-difluoro-5-[(4-fluorotetrahydro-2H-pyran-4-yl)methoxy]phenyl}sulfonyl)-2-(1H-pyrrolo[2,3-b]pyridin-5-yloxy)benzamide] | > 1000 | –
